{"source": "ChEMBL document CHEMBL5465560", "about": "“Selectivity Literature for EUbOPEN Chemogenomic Library” (2024)", "key": {"[1]": {"tested_on": "Receptor-type tyrosine-protein kinase FLT3 (Homo sapiens), P36888 [UNDEFINED MUTATION]", "assay": "(§1) Selectivity interaction (KinomeScan (DiscoverX)) EUB0000045b FLT3"}, "[2]": {"tested_on": "T1, Receptor-type tyrosine-protein kinase FLT3 (Homo sapiens), P36888 [K663Q]", "T1 sequence (whole entry)": "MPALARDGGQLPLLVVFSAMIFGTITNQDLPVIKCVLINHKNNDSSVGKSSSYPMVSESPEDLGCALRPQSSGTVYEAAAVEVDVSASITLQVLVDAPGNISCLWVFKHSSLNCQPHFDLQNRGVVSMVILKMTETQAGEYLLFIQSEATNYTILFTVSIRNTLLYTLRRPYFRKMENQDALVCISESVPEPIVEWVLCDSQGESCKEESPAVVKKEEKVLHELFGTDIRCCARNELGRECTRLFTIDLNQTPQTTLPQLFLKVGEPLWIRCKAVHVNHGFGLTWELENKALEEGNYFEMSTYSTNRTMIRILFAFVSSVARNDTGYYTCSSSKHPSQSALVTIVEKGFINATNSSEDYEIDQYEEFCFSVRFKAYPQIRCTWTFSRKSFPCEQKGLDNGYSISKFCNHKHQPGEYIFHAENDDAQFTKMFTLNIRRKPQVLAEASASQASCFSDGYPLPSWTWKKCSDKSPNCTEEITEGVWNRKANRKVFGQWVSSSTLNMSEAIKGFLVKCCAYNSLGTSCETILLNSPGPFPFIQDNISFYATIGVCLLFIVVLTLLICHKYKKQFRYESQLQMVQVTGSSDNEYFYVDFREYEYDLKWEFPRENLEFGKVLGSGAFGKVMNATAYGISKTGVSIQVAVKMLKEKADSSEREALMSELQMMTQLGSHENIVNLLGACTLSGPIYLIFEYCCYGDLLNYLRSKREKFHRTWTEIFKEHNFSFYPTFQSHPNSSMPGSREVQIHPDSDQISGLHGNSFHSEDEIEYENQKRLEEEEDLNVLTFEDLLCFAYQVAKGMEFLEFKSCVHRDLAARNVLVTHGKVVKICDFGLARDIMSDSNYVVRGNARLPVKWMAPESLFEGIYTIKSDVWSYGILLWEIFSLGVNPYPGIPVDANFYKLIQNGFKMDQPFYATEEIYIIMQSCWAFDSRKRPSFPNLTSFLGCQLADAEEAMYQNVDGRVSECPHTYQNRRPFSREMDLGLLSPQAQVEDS", "assay": "as §1"}, "[3]": {"tested_on": "T2, Receptor-type tyrosine-protein kinase FLT3 (Homo sapiens), P36888 [D835H]", "T2 sequence (whole entry)": "T1 sequence (whole entry) with Q663K, D835H", "assay": "as §1"}, "[4]": {"tested_on": "T3, Receptor-type tyrosine-protein kinase FLT3 (Homo sapiens), P36888 [N841I]", "T3 sequence (whole entry)": "T1 sequence (whole entry) with Q663K, N841I", "assay": "as §1"}}, "note": "Numbering of substitutions follows the chain as printed.", "data": [{"smiles": "C=CC(=O)Nc1cc(-n2c(=O)ccc3cnc4ccc(-c5ccc(NS(C)(=O)=O)cc5)cc4c32)ccc1C", "values": [{"measurement": "% of control", "setting": "[1]; at 1 µM", "result": 99, "unit": "%"}, {"measurement": "% of control", "setting": "[1]; at 10 µM", "result": 100, "unit": "%"}, {"measurement": "% of control", "setting": "[2]; at 1 µM", "result": 100, "unit": "%"}, {"measurement": "% of control", "setting": "[2]; at 10 µM", "result": 100, "unit": "%"}, {"measurement": "% of control", "setting": "[3]; at 1 µM", "result": 89, "unit": "%"}, {"measurement": "% of control", "setting": "[3]; at 10 µM", "result": 100, "unit": "%"}, {"measurement": "% of control", "setting": "[4]; at 1 µM", "result": 85, "unit": "%"}, {"measurement": "% of control", "setting": "[4]; at 10 µM", "result": 86, "unit": "%"}]}]}
